Assay results reported in US11524940B1, “Inhibitors of cysteine proteases and methods of use thereof” (priority 2020, dated 2022).
Read-outs that look alike come from different tables or passages of the source.

Biological target: 229E Mpro (Human coronavirus 229E (HCoV-229E), UniProt P0C6X1)
Assay: 229E Mpro activity
Assay type: biochemical
Description: Compounds are assayed using standard methods to assess compound activity and IC50. […] The assay buffer contains 20 mM of Tris-HCl (pH 7.3), 100 mM of NaCl, 1 mM of EDTA, 5mM of TCEP and 0.1% BSA.

229E Mpro, sequence (P0C6X1 2966-3267 limits assumed): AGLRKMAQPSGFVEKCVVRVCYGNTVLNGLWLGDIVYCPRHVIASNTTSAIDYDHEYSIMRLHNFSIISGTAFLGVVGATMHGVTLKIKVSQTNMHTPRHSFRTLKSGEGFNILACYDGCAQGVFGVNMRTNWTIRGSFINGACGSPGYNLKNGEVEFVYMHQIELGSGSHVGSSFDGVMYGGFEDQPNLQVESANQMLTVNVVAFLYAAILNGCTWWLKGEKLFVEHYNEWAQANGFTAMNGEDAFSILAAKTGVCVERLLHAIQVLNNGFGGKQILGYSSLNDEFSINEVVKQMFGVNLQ

N#C[C@H](C[C@@H]1CCNC1=O)NC(=O)C1CC2(CCCCC2)CN1C(=O)c1cc2ccc(Cl)cc2[nH]1 (single isomer, unassigned) [878 (Isomer 2)]
EC50 (read-out: 229E Mpro EC50): 10 to 30 µM

COc1ccc2[nH]c(C(=O)N3CC4(CCCCC4)CC3C(=O)N[C@H](C#N)C[C@@H]3CCNC3=O)cc2c1Cl (single isomer, unassigned) [880 (Isomer 1)]
EC50 (read-out: 229E Mpro EC50): 10 to 30 µM

COc1ccc2[nH]c(C(=O)N3CC4(CCCCC4)CC3C(=O)N[C@H](C#N)C[C@@H]3CCNC3=O)cc2c1Cl (single isomer, unassigned) [880 (Isomer 2)]
EC50 (read-out: 229E Mpro EC50): < 2 µM

N#C[C@H](C[C@@H]1CCNC1=O)NC(=O)C1CC2(CCCCC2)CN1C(=O)c1cc2cccc(Cl)c2[nH]1 (single isomer, unassigned) [984 (Isomer 1)]
EC50 (read-out: 229E Mpro EC50): < 2 µM

N#C[C@H](C[C@@H]1CCNC1=O)NC(=O)C1CC2(CCCCC2)CN1C(=O)c1cc2cccc(Cl)c2[nH]1 (single isomer, unassigned) [984 (Isomer 2)]
EC50 (read-out: 229E Mpro EC50): > 30 µM

N#C[C@H](C[C@@H]1CCNC1=O)NC(=O)C1CC2(CCCCC2)CN1C(=O)c1cc2ccc(Cl)c(Cl)c2[nH]1 (single isomer, unassigned) [986 (Isomer 1)]
EC50 (read-out: 229E Mpro EC50): < 2 µM

N#C[C@H](C[C@@H]1CCNC1=O)NC(=O)C1CC2(CCCCC2)CN1C(=O)c1cc2ccc(Cl)c(Cl)c2[nH]1 (single isomer, unassigned) [986 (Isomer 2)]
EC50 (read-out: 229E Mpro EC50): > 30 µM

COc1cccc2[nH]c(C(=O)N[C@@H](CC3CC3)C(=O)N[C@](C)(C#N)CC3CCNC3=O)cc12 (single isomer, unassigned) [1055 (Isomer 1)]
EC50 (read-out: 229E Mpro EC50): > 30 µM

CC1(C)CCC(C[C@@H](C#N)NC(=O)[C@H](CC2CC2)NC(=O)c2cc3cccc(Cl)c3[nH]2)C(=O)N1 (single isomer, unassigned) [Compound 749 (Isomer 1)]
EC50 (229E Mpro EC50): 2 to 10 µM

CC1(C)CCC(C[C@@H](C#N)NC(=O)[C@H](CC2CC2)NC(=O)c2cc3cccc(Cl)c3[nH]2)C(=O)N1 (single isomer, unassigned) [Compound 749 (Isomer 2)]
EC50 (read-out: 229E Mpro EC50): 2 to 10 µM

CC(C)C[C@H](NC(=O)c1nc2ncccc2[nH]1)C(=O)N[C@H](C#N)C[C@@H]1CCNC1=O [Compound 131, N-[(1S)-1-[[(1S)-1-cyano-2-[(3S)-2-oxopyrrolidin-3-yl]ethyl]carbamoyl]-3-methyl-butyl]-1H-imidazo[4,5-b]pyridine-2-carboxamide]
EC50 (read-out: 229E Mpro EC50): < 2 µM

COc1cccc2[nH]c(C(=O)N[C@@H](CC(C)C)C(=O)N[C@H](/C=C/S(C)(=O)=O)C[C@@H]3CCNC3=O)cc12 [Compound 136, 4-methoxy-N-[(1S)-3-methyl-1-[[(E,1S)-3-methylsulfonyl-1-[[(3S)-2-oxopyrrolidin-3-yl]methyl]allyl]carbamoyl]butyl]-1H-indole-2-carboxamide]
EC50 (read-out: 229E Mpro EC50): < 2 µM

COc1cccc2[nH]c(C(=O)N[C@H](C(=O)N[C@H](C#N)C[C@@H]3CCNC3=O)[C@@H]3Cc4ccccc4O3)cc12 [Compound 147, N-((S)-2-(((S)-1-cyano-2-((S)-2-oxopyrrolidin-3-yl)ethyl)amino)-1-((S)-2,3-dihydrobenzofuran-2-yl)-2-oxoethyl)-4-methoxy-1H-indole-2-carboxamide]
EC50 (read-out: 229E Mpro EC50): > 30 µM

COc1cccc2[nH]c(C(=O)N[C@H](C(=O)N[C@H](C#N)C[C@@H]3CCNC3=O)C3Cc4ccccc4C3)cc12 [Compound 149, N-[(1S)-2-[[(1S)-1-cyano-2-[(3S)-2-oxopyrrolidin-3-yl]ethyl]amino]-1-indan-2-yl-2-oxo-ethyl]-4-methoxy-1H-indole-2-carboxamide]
EC50 (read-out: 229E Mpro EC50): 2 to 10 µM

COc1cccc2[nH]c(C(=O)N[C@@H](Cc3cccc(Cl)c3)C(=O)N[C@H](C#N)C[C@@H]3CCNC3=O)cc12 [Compound 153]
EC50 (read-out: 229E Mpro EC50): 10 to 30 µM

COc1cccc2[nH]c(C(=O)N3C[C@H](OC(C)(C)C)C[C@H]3C(=O)N[C@H](C#N)C[C@@H]3CCNC3=O)cc12 [Compound 165, (2S,4R)-4-(tert-butoxy)-N-((S)-1-cyano-2-((S)-2-oxopyrrolidin-3-yl)ethyl)-1-(4-methoxy-1H-indole-2-carbonyl)pyrrolidine-2-carboxamide]
EC50 (read-out: 229E Mpro EC50): > 30 µM
